From patent publication US20240366728A1, “Treatment of Diabetes Mellitus” (Carmot Therapeutics Inc., priority 2023, published 2024)
Several values for one entry are separate records, joined by “and”; a condition that tells them apart may be missing. Equal entries are not always repeated.

Assays:
[1] = clinical; set-up: species or system human; conditions: in vivo
Protocol: Blood samples, pre- and post-dose, were collected during the in-house treatment periods for the assessment of PD and PK endpoints. […] In addition, fasting plasma glucose (FPG), insulin, C-peptide, GCG and HOMA-IR after ≥10 hours overnight fast and VAS assessments were done on Days 1, 2 and 3.
In participants with T2DM, blood samples were collected on Days 2, 3 and 4 for assessing PK profiles and for PD profiles, on Days 2 and 3. Fasting plasma glucose (FPG), insulin, C-peptide, GCG and HOMA-IR after ≥10 hours overnight fast on Days 1, 2, 3 and 4. A mixed meal tolerance test (MMTT) and prospective meal consumption (ad libitum meal) was administered on Day 4. Appetite and food intake were assessed using a VAS questionnaire (appetite, hunger and satiety) on Days 1, 2, 3 and 4.

[2] = target: T1, human GIPR (Homo sapiens, UniProt P48546); test: β-arrestin-2 recruitment (NanoBiT), human GIPR; type: cell-based; conditions: Table 17
T1 sequence (P48546 22-466): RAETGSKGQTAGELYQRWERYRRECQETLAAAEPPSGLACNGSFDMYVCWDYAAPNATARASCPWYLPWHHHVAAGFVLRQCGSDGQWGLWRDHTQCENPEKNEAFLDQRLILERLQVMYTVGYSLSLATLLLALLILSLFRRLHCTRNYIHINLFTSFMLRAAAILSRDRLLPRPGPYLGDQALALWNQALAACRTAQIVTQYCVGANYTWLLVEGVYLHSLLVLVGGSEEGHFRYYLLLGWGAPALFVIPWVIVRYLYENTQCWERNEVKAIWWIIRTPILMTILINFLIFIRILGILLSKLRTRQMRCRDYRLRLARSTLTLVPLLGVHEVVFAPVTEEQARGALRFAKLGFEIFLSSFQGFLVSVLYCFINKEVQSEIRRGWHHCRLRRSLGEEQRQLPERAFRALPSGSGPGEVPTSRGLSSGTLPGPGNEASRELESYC
Protocol: To measure GLP-1R and GIPR-mediated β-arrestin recruitment, we utilized Promega's NanoBiT® technology or NanoLuc® Binary Technology. The NanoLuc luciferase is split into two subunits, called LgBiT and SmBIT, which are expressed in HEK293 cells as fusion proteins at the C-terminus of GLP-IR or GIPR and the N-terminus of β-arrestin-2. […] The next day, the media was removed and replaced with […] 1:100 dilution of Nano-Glo® Live Cell Substrate in Opti-MEM™ and equilibrated to room temperature for ten minutes. Background luminescence was measured before 10 nL compound was added using an ECHO Acoustic Liquid Handler.
To measure GLP-1R and GIPR-mediated β-arrestin recruitment, Promega's NanoBiT® technology or NanoLuc® Binary Technology were utilized. Both allow for the detection and quantification of protein: protein interactions in live cells (Samms et al., Trends Endocrinol Metab 31:410-21). The NanoLuc luciferase is split into two subunits, called LgBiT and SmBIT, which are expressed in HEK293 cells as fusion proteins at the C-terminus of GLP-1R or GIPR and the N-terminus of β-arrestin-2, respectively. […] Background luminescence was measured before 10 nL compound was added using an ECHO Acoustic Liquid Handler. Luminescence was measured at 1.5-minute intervals for 30 minutes.

[3] = system: DIO C57BL/6J mice; test: chronic daily SC dosing in DIO mice (body weight, food, glucose, insulin, tissue weights); type: in vivo, mouse
Protocol: Body weight and food consumption were measured daily (FIGS. 8 and 9). On the last day of the study mice were fasted for 5 hours. At the end of the fasting period, glucose was measured (FIG. 6) and plasma was collected for insulin analysis. Plasma insulin was measured using an MSD kit. Fasting glucose and insulin were used to calculate the log (HOMA-IR) (FIG. 7).
Body weight was measured daily (FIG. 11). […] On the last day of the study, glucose was measured, and plasma was collected for insulin analysis. Plasma insulin was measured using an MSD kit. Glucose and insulin were used to calculate log (HOMA-IR) (FIG. 10).
DIO mice were acclimated to daily weighing and handling for approximately 1 week until their weight had stabilized. Mice were injected subcutaneously once daily with the indicated dose of peptide, or vehicle, based on current body weight. Injections were performed six hours before the dark cycle started to approximate reaching Tmax when the dark cycle started. Where indicated, 24-hour food consumption studies were performed as described above. Body weight as a percentage of initial weight was calculated daily by dividing the daily body weight by the body weight taken before the first dose of peptide, multiplied by 100%. Blood glucose was determined at study termination, and blood was collected to quantify plasma insulin concentrations. Mice were sedated by isoflurane and euthanized by decapitation. […] Plasma was stored at −80° C. until analysis. Subcutaneous and inguinal fat and the liver were removed and weighed.
DIO and ob/ob mice were acclimated to daily weighing and handling for approximately one week until weight had stabilized. […] Injections were performed six hours before the start of the dark cycle to approximate reaching Tmax when the dark cycle started. […] In both the DIO and ob/ob weight loss studies, body weight as a percentage of initial weight was calculated daily by dividing the daily body weight by the body weight taken before the first dose of peptide, multiplied by 100%. Blood glucose was determined at study termination, and blood was collected to quantify plasma insulin concentrations. Mice were sedated by isoflurane and euthanized by decapitation. […] Subcutaneous and inguinal fat and the liver were removed and weighed.

## CCCCCCCCCCCCCCCC(=O)N[C@@H](CCC(=O)NCCCC[C@H](NC(=O)[C@H](CO)NC(=O)[C@@H]1CCCN1C(=O)[C@@H]1CCCN1C(=O)[C@@H]1CCCN1C(=O)[C@H](C)NC(=O)CNC(=O)[C@H](CO)NC(=O)[C@H](CO)NC(=O)[C@@H]1CCCN1C(=O)CNC(=O)CNC(=O)[C@H](C)NC(=O)[C@H](CC(C)C)NC(=O)[C@H](CC(C)C)NC(=O)[C@H](Cc1c[nH]c2ccccc12)NC(=O)[C@H](CC(N)=O)NC(=O)[C@@H](NC(=O)[C@H](Cc1ccccc1)NC(=O)[C@H](CCC(=O)O)NC(=O)C(C)(C)NC(=O)[C@H](C)NC(=O)[C@H](C)NC(=O)[C@H](CCC(N)=O)NC(=O)[C@H](CCCCN)NC(=O)[C@H](CC(=O)O)NC(=O)[C@H](CC(C)C)NC(=O)[C@H](Cc1ccc(O)cc1)NC(=O)[C@@H](NC(=O)[C@H](CO)NC(=O)[C@H](Cc1ccc(O)cc1)NC(=O)[C@H](CC(=O)O)NC(=O)[C@H](CO)NC(=O)[C@@H](NC(=O)[C@H](Cc1ccccc1)NC(=O)[C@@H](NC(=O)CNC(=O)[C@H](CCC(=O)O)NC(=O)CSCC(=O)NCCN1CCCCC1=O)[C@@H](C)O)[C@@H](C)O)[C@@H](C)CC)C(C)C)C(N)=O)C(=O)O [CT-868]
[1]; human
  incremental AUC: 128,267 ng/ml*min
  terminal half-life (t1/2): 1,190 minutes
[1]; human, AUC
  AUC: 3490 ng·h/mL
[1]; human, AUC (0-tau)
  AUC: 3860 ng·h/mL
[1]; human, Cmax
  Cmax: 247 ng/mL
[1]; human, Maximum Concentration of CT-868 (Cmax)
  Cmax: 274 ng/mL
[1]; human, Time of Maximum Concentration of CT-868 (Tmax)
  Tmax: 10.9 h
[1]; human, Tmax
  Tmax: 12.2 h
[1]; human, incremental AUC
  AUC: 2260 ng·h/mL
[1]; human, terminal half-life
  half-life: ~20 h
[1]; human, terminal half-life (t1/2)
  half-life: 19.8 h
[1]
  time at which maximum plasma concentrations were attained post-dose: 11 to 12 h
[2]; read-out: hGIPR β-arrestin-2 EC50
  EC50: 13 nM
[2]; read-out: hGIPR β-arrestin-2 % Emax
  Emax: 1%

## CCCCCCCCCCCCCCCC(=O)N[C@@H](CCC(=O)NCCCC[C@H](NC(=O)[C@H](CO)NC(=O)[C@@H]1CCCN1C(=O)[C@@H]1CCCN1C(=O)[C@@H]1CCCN1C(=O)[C@H](C)NC(=O)CNC(=O)[C@H](CO)NC(=O)[C@H](CO)NC(=O)[C@@H]1CCCN1C(=O)CNC(=O)CNC(=O)[C@H](C)NC(=O)[C@H](CC(C)C)NC(=O)[C@H](CC(C)C)NC(=O)[C@H](Cc1c[nH]c2ccccc12)NC(=O)[C@H](CC(N)=O)NC(=O)[C@@H](NC(=O)[C@H](Cc1ccccc1)NC(=O)[C@H](CCC(=O)O)NC(=O)C(C)(C)NC(=O)[C@H](C)NC(=O)[C@H](C)NC(=O)[C@H](CCC(N)=O)NC(=O)[C@H](CCCCN)NC(=O)[C@H](CC(=O)O)NC(=O)[C@H](CC(C)C)NC(=O)[C@H](Cc1ccc(O)cc1)NC(=O)[C@@H](NC(=O)[C@H](CO)NC(=O)[C@H](Cc1ccc(O)cc1)NC(=O)[C@H](CC(=O)O)NC(=O)[C@H](CO)NC(=O)[C@@H](NC(=O)[C@H](Cc1ccccc1)NC(=O)[C@@H](NC(=O)CNC(=O)[C@H](CCC(=O)O)NC(=O)CSCC(=O)NCCN1C(=O)CSC1=O)[C@@H](C)O)[C@@H](C)O)[C@@H](C)CC)C(C)C)C(N)=O)C(=O)O [CT-859]
[3]
  adipose tissue weight vs liraglutide (in words): decreases adipose tissue weight more than liraglutide
[3]; 20 and 200 nmol/kg
  body weight vs liraglutide (in words): decreases body weight more than liraglutide at non-GIPR and GIPR engaging doses
[3]; DIO mice, 20 nmol/kg, 19 days
  body weight decreased compared to liraglutide, end of study: 8%
  body weight decreased compared to vehicle, end of study: 20%
  fasting glucose (in words): lowered fasting glucose more than liraglutide
  inguinal adipose weight lower than vehicle: 39%
[3]; DIO mice, 20 nmol/kg, 20 days
  cumulative food intake vs liraglutide (in words): without significant difference in cumulative food intake
  fasting GLUC: 146.5 mg/dL
  weight loss (WL): −16.5%
[3]; DIO mice, 20 nmol/kg, 20 days, fasted
  insulin resistance log (HOMA-IR): 0.74
[3]; DIO mice, 200 nmol/kg, 19 days
  adipose weight (in words): decreased inguinal and epididymal adipose weight more than liraglutide
  body weight decreased compared to liraglutide, end of study: 14%
  body weight decreased compared to vehicle, end of study: 33% and ~35%
  fed glucose levels (in words): decreased fed glucose levels more than the vehicle
[3]; DIO mice, 200 nmol/kg, 20 days
  nonfasted log (HOMA-IR): 1.17
  weight loss (WL): −30.1%
[3]; DIO mice, 200 nmol/kg, after 7 days of dosing
  food consumption lowered compared to liraglutide: 39%
[3]; DIO mice, 200 nmol/kg, day 7
  food intake: 1.2 g
[3]; DIO mice, 200 nmol/kg, day 14
  food intake: 1.7 g
[3]; DIO mice, GIPR-engaging dose
  additional weight loss over liraglutide: 10%
